Experimental data reported in paper PMC5482218 (Archiv der Pharmazie, 2016).

Columns and labels:
[1] = test system: L-type calcium channels (LTCC); assay: High-throughput fluorescence Ca2+ flux assay; conditions: for Dose-response profile / effect on K+-induced Ca2+ influx: PC12 cells, Fura-2/AM, 50 mM KCl; for IC50: read-out: IC50 for the inhibition of K+-induced Ca2+ influx, PC12 cells loaded with Fura-2/AM, 10 min preincubation, depolarization with 50 mM KCl
[2] = test system: PC12 cells
[3] = test system: PC12 cells; assay: LDH release cell viability assay, with and without 200 μM H2O2; format: cell-based, rat; conditions: for Attenuation of H2O2-induced LDH release: 200 μM H2O2 24 h, p<0.05; for LDH release by compound alone (inherent toxicity): absence of H2O2, 100 μM, PC12 cells

Question: With O=C1CCC2CC3CCC(=O)C3C12 (stereo not drawn) [Compound 10, Tricyclo[6.3.0.0^2,6]undecane-3,11-dione] as the compound, how does the “Dose-response profile / effect on K+-induced Ca2+ influx” value (“Dose-response profile / effect” for short) [1] read?
Answer: Its value is “slight potentiating effect but no antagonistic activity”.

Question: Which IC50 [1] does the source give for OC12C3C4CC5C6C4C1C6C(C53)N2Cc1ccccc1 (stereo not drawn) [Compound 8a, N-Benzyl-3-hydroxy-4-azahexacyclo[5.4.1.0^2,6.0^3,10.0^5,9. 0^8,11]dodecane] here?
Answer: The IC50 was 35 µM.

Question: “N-Benzyl-3,11-azatricyclo[6.3.0.0^2,6]undecane [Compound 14a]” was tested. Which IC50 [1] did it give?
Answer: The IC50 was 74 µM.

Question: For c1cc(CN2C3CCC4CC5CCC2C5C43)ccn1 (stereo not drawn) [Compound 14f, N-(Pyridin-4-ylmethyl)-3,11-azatricyclo[6.3.0.0^2,6]-undecane], which IC50 [1] is on record?
Answer: Its IC50 is 5 µM.

Question: c1ccc(CNC23OC4C5C6CC(C7C6C4C72)C53)cc1 (stereo not drawn) [Compound 7a, 8-benzylamino-8,11-oxapentacyclo[5.4.0.0^2,6.0^3,10.0^5,9]undecane] was tested. Which “Reduction of H2O2-induced toxicity (Trypan blue exclusion)” value ([2]; 200 μM H2O2, compound at 1, 10 and 100 μM, p<0.05) did it give?
Answer: Its value is “significant reduction”.

Question: And the IC50 [1]?
Answer: Its IC50 is 86 µM.

Question: And the “Attenuation of H2O2-induced LDH release” value ([3]; compound at 1, 10 and 100 μM)?
Answer: Its value is “significant attenuation of LDH release”.

Question: And the “LDH release by compound alone (inherent toxicity)” value [3]?
Answer: The value was “some LDH release”.

Question: For O=C1C2C3CC4C2C(=O)C2C1C3C42 (stereo not drawn) [Compound 4, Pentacyclo[5.4.0.0^2,6.0^3,10.0^5,9]undecane-8,11-dione], which “Dose-response profile / effect” value [1] is on record?
Answer: Its value is “no activity”.

Question: “N-Cyclohexylmethyl-3,11-azatricyclo[6.3.0.0^2,6]undecane [Compound 14d]” was tested. Which IC50 [1] did it give?
Answer: The IC50 was 68 µM.

Question: For COc1cccc(CN2C3CCC4CC5CCC2C5C43)c1 (stereo not drawn) [Compound 14e, N-(3-Methoxybenzyl)-3,11-azatricyclo[6.3.0.0^2,6]undecane], which IC50 [1] is on record?
Answer: Its IC50 is 11 µM.

Question: “3-Hydroxy-3,11-oxatricyclo[6.3.0.0^2,6]undecane [Compound 11]” was tested. Which “Dose-response profile / effect” value [1] did it give?
Answer: Its value is “potentiating effect”.

Question: For OC12C3C4CC5C6C4C1C6C(C53)N2CCc1ccccc1 (stereo not drawn) [Compound 8b, N-Phenylethyl-3-hydroxy-4-azahexacyclo[5.4.1.0^2,6.0^3,10 0^5,9.0^8,11]dodecane], which “Protection in the cell viability assay (Trypan blue)” value ([2]; 200 μM H2O2, concentration not stated) is on record?
Answer: The value was “able to offer protection”.

Question: What about the “Change in cell viability by compound alone (Trypan blue exclusion)” value ([2]; absence of H2O2, 10 and 100 μM, versus untreated cells) of the same compound?
Answer: Its value is “slight decrease in cell viability”.

Question: And the IC50 [1]?
Answer: Its IC50 is 8 µM.

Question: And the “Attenuation of H2O2-induced LDH release” value ([3]; compound at 1 and 10 μM)?
Answer: Its value is “significant attenuation of LDH release”.

Question: And the “LDH release by compound alone (inherent toxicity)” value [3]?
Answer: Its value is “some LDH release”.

Question: Which IC50 [1] does the source give for CCCCCCCN1C2C3C4CC5C6C4C2C6C1(O)C53 (stereo not drawn) [Compound 8c, N-Heptyl-3-hydroxy-4-azahexacyclo[5.4.1.0^2,6.0^3,10.0^5,9. 0^8,11]dodecane] here?
Answer: The IC50 was 7 µM.
